According to patent US7629002B2, “Antimicrobial polymeric compositions and method of treatment using them” (Chemeq Ltd., priority 2000, dated 2009):

Key:
S. aureus = experiment: MKC of preservatives and synergy (Example 14); format: cell-based
Procedure: (§1) Overnight broths of challenge cultures were prepared and the Total Viable Count (TVC) of the overnight cultures was estimated.
(§2) The samples were serially diluted 1 to 1 using sterile normal saline (5 mL). Sterile Hard Water (SHW) was used as diluent when testing samples containing EDTA.
(§3) 1 part of each overnight culture was diluted in 9 parts diluent. The resulting diluted suspensions were used as the inocula.
(§4) Inoculate each sample dilution with 100 μL of the diluted overnight culture. (One culture per tube). Mix well.
(§5) The tubes were incubated for ≦24 hours at 37° C. (A. niger was incubated at 28° C. for ≦24 hours).
(§6) From each test tube, 1 mL was subcultured into 9 mL of recovery broth and mixed well (Recovery Broths: Nutrient Broth+3% Tween 80 (NBT) for polymeric antimicrobial and EDTA; Nutrient Broth+3% Tween 80+(NBTA) for glutaraldehyde and, Letheen Broth (LB) for methyl parabens).
(§7) The samples incubated at 37° C. for a further ≦48 hours. (28° C. for ≦5 days for A niger).
(§8) Each tube was examined for growth. All tubes were then subcultured onto selective agar and incubated for ≦24 hours at 37° C. (28° C. for ≦5 days for A. niger). Growth on selective agar was taken to confirm growth of the test organism.

P. aeruginosa = experiment: MKC of preservatives and synergy (Example 14); format: cell-based
Procedure: as §1, §2, §3, §4, §5, §6, §7, §8

A. niger = experiment: MKC of preservatives and synergy (Example 14); format: cell-based; details: polymer 0.2% w/w
Procedure: as §1, §2, §3, §4, §5, §6, §7, §8

C. albicans = experiment: MKC of preservatives and synergy (Example 14); format: cell-based; details: polymer 0.2% w/w, mix as ratio
Procedure: as §1, §2, §3, §4, §5, §6, §7, §8

E. coli = experiment: MKC of preservatives and synergy (Example 14); format: cell-based
Procedure: as §1, §2, §3, §4, §5, §6, §7, §8

[1] = in vivo
Description: Chickens treated each of the antimicrobials were compared with a control group according to the following procedure:
In each trial 20 Cob chickens (Line 53), day old were purchased from a commercial hatchery. They were weighed, sexed and randomly assigned into adjacent pens in a room of an isolated animal house. There was an even distribution of male and female chickens. Water and feed were available ad libitum. The diet was a commercial crumble (Chick Starter, Milne Feeds: 18% crude protein) with a coccidiostat present (125 ppm Dinitolomide).
Ten chickens were administered the formulation of 0.1% w/w of normally activated antimicrobial from Example 10a in the water for 14 days through static drinkers; dose rate of 30 mg/kg/day. The other ten chickens were the Control Group.
Both groups of chickens were weighed on days 0, 4, 7, 11 and 14. At the completion of the trial all chickens were euthanised, and the treated chickens were autopsied post mortem. A thorough gross examination of the thoracic and abdominal cavities was performed.

## O=C(O)CN(CCN(CC(=O)O)CC(=O)O)CC(=O)O [EDTA]
S. aureus; inoculum 1.3 × 10^9 cfu/mL, polymer 0.2% w/w, EDTA 0.1% w/w, mix as ratio
  MKC: >1000
P. aeruginosa; inoculum 9.4 × 10^8 cfu/mL, polymer 0.2% w/w, EDTA 0.1% w/w, mix as ratio
  MKC: 1000
A. niger; inoculum 3.0 × 10^7 cfu/mL, EDTA 0.1% w/w, mix as ratio polymeric antimicrobial:preservative
  MKC: >1000
C. albicans; inoculum 3.2 × 10^6 cfu/mL, EDTA 0.1% w/w
  MKC: 1000
E. coli; inoculum 1.0 × 10^9 cfu/mL, polymer 0.2% w/w, EDTA 0.1% w/w, mix as ratio
  MKC: >1000

## O=CCCCC=O [Glutaraldehyde]
S. aureus; inoculum 1.5 × 10^9 cfu/mL, polymer 0.025% w/w, Glutaraldehyde 0.025% w/w
  MKC: 7
P. aeruginosa; inoculum 1.9 × 10^9 cfu/mL, polymer 0.025% w/w, Glutaraldehyde 0.025% w/w
  MKC: 31
A. niger; inoculum 3.3 × 10^7 cfu/mL, Glutaraldehyde 0.025% w/w start solutions, mix as ratio polymeric antimicrobial:preservative
  MKC: >250
C. albicans; inoculum 3.0 × 10^6 cfu/mL, Glutaraldehyde 0.025% w/w
  MKC: 125
E. coli; inoculum 1.6 × 10^9 cfu/mL, polymer 0.025% w/w, Glutaraldehyde 0.025% w/w
  MKC: 3.5

## COC(=O)c1ccc(O)cc1 [Methyl Paraben]
S. aureus; inoculum 1.3 × 10^9 cfu/mL, polymer 0.2% w/w, Methyl Paraben 1% w/w, in 80% w/w glycerol, mix as ratio
  MKC: 2500
P. aeruginosa; inoculum 1.8 × 10^9 cfu/mL, polymer 0.2% w/w, Methyl Paraben 1% w/w, in 80% w/w glycerol, mix as ratio
  MKC: 1250
A. niger; inoculum 2.2 × 10^7 cfu/mL, Methyl Paraben 1% w/w, in 80% w/w glycerol, mix as ratio
  MKC: 10000
C. albicans; inoculum 1.1 × 10^7 cfu/mL, Methyl Paraben 1% w/w, in 80% w/w glycerol
  MKC: 1250
E. coli; inoculum 9.6 × 10^8 cfu/mL, polymer 0.2% w/w, Methyl Paraben 1% w/w, in 80% w/w glycerol, mix as ratio
  MKC: 2500

## poly(2-propenal, 2-propenoic acid) [Example 10a]
[1]
  clinical or pathological signs of toxicity at gross examination post-mortem: no clinical or pathological signs of toxicity were evident
